Test [1] relates to carrageenan induced paw edema. Description: Inflammation imaging, carrageenan induced paw edema. To be noted: 1% carrageenan subcutaneously, fluorescence molecular tomography; FIG. 9. In kind it is in vivo, BALB/c female mice. Here is the method: Briefly, BALB/c female mice 6-8 weeks old (Charles River Laboratory, Wilmington, Mass.) were injected subcutaneously with a 1% solution of carrageenan in PBS. After 1 minute post-injection, mice were injected the imaging agent Q91. Imaging was conducted at various time points using a Fluorescence Molecular Tomography system (VisEn Medical, Woburn Mass.).
In general terms: In the carrageenan paw model, swelling and tenderness develop within hours.

The next test addresses T1, recombinant human MMP-13 (Homo sapiens, UniProt P45452).
T1 construct: purchased
Description: Enzyme activation of R22, MMP-13. Format: biochemical. To be noted: 0.5 μM R22, 0.05 μM enzyme, room temperature, 24 hours; FIG. 13. The protocol: (§1) Activation by recombinant enzymes was carried out in 250 μL volumes set up in 96 well plates. MMPs were activated prior to the reaction according to manufacturers' protocols. Reactions contained 0.5 μM of R22 and 0.05 μM of activated enzyme in the appropriate activation buffer for each enzyme and incubated at room temperature for 24 hours. The plates were read at 24 hours with excitation/emission wavelength 740/770 nm. Fluorescence readings were performed using a Gemini (Molecular Devices) Fluorescence Plate Reader. Wells in which no enzyme was added were used as controls. Fold activation was obtained by dividing the enzyme-activated read-out (in relative fluorescence units) by its corresponding control well.

A further test has as its system trypsin. The experiment in a line: Enzyme activation of R22, trypsin. To be noted: 0.5 μM R22, 0.05 μM enzyme, room temperature, 24 hours; FIG. 13. In kind it is biochemical. The protocol: as §1
Test [2] deals with Cathepsin B, Cathepsin K, Cathepsin L, or Cathepsin S. The experiment in a line: Enzyme activation profiles of R51 to R59, cathepsins. The settings on record: compound 0.5 uM, enzyme 0.05 uM, monitored for 24 hours; FIG. 15. Format: biochemical. Here is the method:
Compounds at a concentration of 0.5 uM were incubated with Cathepsin B, Cathepsin K, Cathepsin L, or Cathepsin S at a concentration of 0.05 uM. The reaction buffers used were as follows: Cathepsin K—50 mM MES, pH 5.0, 2.5 mM EDTA, 2.5 mM DTT; Cathepsin B—25 mM MES, pH 5.0, 1 mM DTT; Cathepsin S—50 mM NaOAc, pH 4.5, 5 mM DTT, 0.25M NaCl; Cathepsin L—50 mM MES, pH 6, 5 mM DTT. The activity was monitored for 24 hours with a Gemini (Molecular Devices) fluorescence plate reader at excitation 663 nm and emission 690 nm with a cut off of […].

The subject of test [3] is atherosclerotic plaque in ApoE -/- knockout mice. The experiment in a line: Imaging of macrophage activity in atherosclerotic plaque. In kind it is in vivo. The settings on record: intravenous, 6 hours post-injection. Here is the method:
Age-matched C57BL6 wild type female mice (Charles river Laboratories) were fed a normal diet and ApoE −/− knockout female mice (Jackson Laboratories) were fed a high cholesterol diet for 10-20 weeks. The mice were injected intravenously with compounds of formula R51 ([mPEG-20kDa-Suc]-Lys(F6)-Gly-Phe-Leu-Gly-Lys(F6)-[NH2]) (SEQ ID NO:435) and R55 ([mPEG-20kDa-Suc]-Lys(F6)-Arg-Arg-Lys(F6)-[NH2]) (SEQ ID NO:438). The mice were then imaged at 6 and 24 hours by fluorescence molecular tomography or fluorescence reflectance using an FMT2500 (VisEn Medical, Bedford, Mass.).

We go through 3 substances from US9999687B2, “Fluorescent imaging agents” (VisEn Medical, Inc., priority 2008, dated 2018).

The star is where a group is joined. YPEG 2×20 kDa = Y-shaped PEG of 2×20 kDa; Pent4ynoyl = C#CCCC(=O)*; F5 = not defined here; F6 = not defined here

As for “Pentynoyl-Lys(F5)-Pro-Leu-Gly-Val-Arg-Lys(F5)-PEG20kDa (Pent4ynoyl-K(F5)PLGVRK(F5)-PEG20kDa; reading uncertain; also: printed as Pentynoyl-Lys(F5)-Pro-Leu-Gly-Val-Arg-Lys(F5)-PEG20kDa) [Agent Q91]”, the “fluorescence in carrageenan injected paw versus control paw” value in test [1] was “significantly more fluorescence is observed in the mouse paw injected with carrageenan compared to the control paw”.

For “[F6]-Gly-Pro-Leu-Gly-Val-Arg-Lys(F6)-[YPEG 2×20 kDa] (F6-GPLGVRK(F6)-{YPEG 2×20 kDa}; reading uncertain; also: printed as [F6]-Gly-Pro-Leu-Gly-Val-Arg-Lys(F6)-[YPEG 2×20 kDa]) [Agent R22]”, in the test with recombinant human MMP-13, the “activation by recombinant human MMP-13 (fold activation)” value is given as “activated primarily”. For the same substance, in the test on trypsin, the “activation by trypsin (fold activation)” value is reported as “activated primarily”.

Take “[mPEG-20kDa-Suc]-Lys(F6)-Gly-Phe-Leu-Gly-Lys(F6)-[NH2] ({mPEG‑20kDa‑Suc}-K(F6)GFLGK(F6)-NH2; reading uncertain; also: printed as [mPEG-20kDa-Suc]-Lys(F6)-Gly-Phe-Leu-Gly-Lys(F6)-[NH2]) [Agent R51]”: the “activation by various Cathepsin proteases compared with the other imaging agents” value in test [2] is on record as “greater than that of the other imaging agents”. For the same substance, the “fluorescent signal in ApoE knockout mice versus wild type controls” value in test [3] (fluorescence molecular tomography, FIG. 17) is “greater fluorescent signal in the ApoE knockout mice over controls”; in test [3] (tomography and reflectance, FIG. 16), “greater fluorescent signal in the ApoE knockout mice over controls”.
